The source of these data is patent publication US20250222028A1, “ENGINEERED IMMUNE CELL PLATFORM” (Cancer Research Technology Limited, priority 2022, published 2025).

Assay [1] relates to L-type voltage gated Ca^2+ channel. Description: Calcium flux after TCR crosslinking in murine CD8+ CTLs. The assay is classed as cell-based. The text has this: FIG. 14. […] Murine CD8^+ CTLs were loaded with Calcium Sensor Dye eFluor™ 514, anti-CD3ε antibodies and calcium channel inhibitors/agonist. Other Calcium channels expressed in CD8 T cells were inhibited: “Block”=BTP2 inhibits CRAC channels downstream of the TCR, and BCTC inhibits TRPV channels. […] T cell receptor (TCR) crosslinking was induced 30 s after the start of sample acquisition by adding antibodies to crosslink the TCR. Arrows indicate the initiation of the calcium flux following TCR crosslinking. The line indicates the baseline fluorescence of the Calcium Sensor Dye eFluor™ 514. Data shown is representative of two independent experiments.
(In general: Calcium assays in cells follow changes in intracellular calcium, usually with a dye or a luminescent sensor.)

Assay [2] deals with K562 target cells. Description: Flow-cytometry based killing assay, human Vγ9Vδ2 gammadelta T cells with K562 target cells. The assay is classed as cell-based. Conditions: 10 μM, killing assessed after 24 hours, vs EtOH carrier control. The protocol:
FIG. 12. GLI1 is important for tumour cell killing of human Vγ9Vδ2 gammadelta T cells and treatment with L-type voltage gated Ca2+ channel agonist FPL 64176 increases killing capacity. PBMCs were isolated from Buffy Coats of healthy donors using SepMate PBMC Isolation Tubes. Vγ9Vδ2 expansion was induced by plating PBMCs at 1×10^6 concentration with 1 μM of Zoledronate in the presence of 100 IU/mL IL-2 and 120 IU/mL IL-15. Cells were split every 2-3 days from day 6 until day 20. Killing assays were conducted between day 16-20. (A) Vγ9Vδ2 T lymphocytes were incubated with Gli1/2 inhibitor GANT61 or EToH (carrier control) overnight and subsequently co-cultured with K562 target cells for 24 h at the indicated effector to target ratios and subjected to a flow-cytometry based killing assay. n=1 individual donor. (B) Vγ9Vδ2 cells were pre-incubated with 10 μM FPL 64176 or EToH (carrier control) before being co-cultured with K562 target cells at indicated effector to target ratios and subjected to a flowcytometric cytotoxicity assay in the presence of 10 μM FPL 64176 or EToH (carrier control). Killing was assessed after 24 hours. Tumour cell killing normalised to carrier treated cells at a 10:1 effector:target ratio. n=4 individual healthy donors from 2 independent experiments. […]

The subject of assay [3] is GLI1. Description: GLI1 expression by qRT-PCR in NK-92 cells. The assay is classed as cell-based, human. The following applies: 10 μM. The protocol:
FIG. 5. L-type Cav channel agonists increase GLI1 expression in the human NK cell line NK-92 and promote specific tumour cell killing. (A) NK-92 cells were stimulated using an anti-NKp46 mAb for 4 hours in the presence of 10 μM FPL 64176, and GLI1 expression was assessed using qRT-PCR. Data is n=4 independent experiments. (B) NK-92 cells were stimulated using an anti-NKp46 mAb for 4 hours in the presence of 100 μM Bay K8644, and GLI1 expression was assessed using qRT-PCR. Data is n=3 independent experiments. (C) An LDH assay was performed to assess specific cell killing of K562 target cells at indicated effector to target ratios in the presence of 10 μM FPL 64176 (right-hand columns) or carrier control (left-hand columns). Error bars indicate SD. Data is from n=3 independent experiments.
To investigate whether L-type Cav channel agonists are also capable of enhancing GLI1 mRNA levels in the human NK cell line NK-92 (a non-Hodgkin's lymphoma cell line, expressing only Cav1.3), NK-92 cells were stimulated using an anti-NKp46 mAb (5 μg/mL) for 4 hours in the presence of either 10 μM FPL 64176 or 100 μM Bay K8644. For reference, Bay K8644 is a structural analogue of nifedipine, and acts as an L-type Cav channel agonist. GLI1 expression was assessed using qRT-PCR. […] These observations confirm that the GLI1-inducing effect of Cav agonists is not merely restricted to the compound FPL 64176. In particular, in NK cells.
(In general: Quantitative PCR measures a nucleic acid by following its amplification.)

Assay [4] has as its system GLI1. Description: GLI1 mRNA expression by qRT-PCR in human CD8+ T cells and CTLs. The assay is classed as cell-based. The protocol:
FIG. 3. L-type Cav channel agonists increase expression of GLI1 and enhance specific cell killing by human CD8+ CTLs. Naïve human CD8+ T cells were purified from the buffy coat layer of blood isolated from healthy donors, and were stimulated using ImmunoCult™ CD3/CD28/CD2 human T-Cell Activator and again restimulated at day 10 for 3 days. (A) Human CTLs were restimulated on day 15-20 for 24 h with plate-bound anti-CD3 in the presence of 10 μM of FPL64176 or carrier control before RNA was extracted for qRT-PCR analysis. n=1 healthy donor. TBP is used as a reference gene. (B) Updated graph of (A) showing n=3 independent experiments/healthy donors. Gli1 expression is normalised to carrier. […] Error bars indicate SD. p values were calculated using an unpaired two-tailed Student's t test (B) or a two-way ANOVA (C/D). * indicates p<0.05, ** indicates p<0.01, **** indicates p<0.0001.
In order to assess the role of L-type Cav channel agonists in controlling the activation and effector function of human CD8+ T cells, naive primary human CD8+ T cells were purified from the buffy coat layer of blood isolated from healthy donors. Cells were stimulated using ImmunoCult™ Human CD3/CD28/CD2 T Cell Activator beads for 24 hours in the presence of 5 or 10 μM FPL 64176 or carrier control, and GLI1 mRNA expression was assessed by qRT-PCR. […]

Turning to `COC(=O)c1c(C)[nH]c(C)c1C(=O)c1ccccc1Cc1ccccc1` [FPL 64176], the “initiation of Ca^2+ flux following TCR crosslinking” value in assay [1] is recorded as “accelerates”. Further, in assay [1] (CRAC and TRPV channels blocked with BTP2 and BCTC), the “Cav-mediated Ca^2+ flux” value is on record as “specifically increases”. Further, the “killing by gammadelta T cells” value in assay [2] is “increased killing”. For the same compound, the GLI1 expression entry in assay [3] (stimulated with anti-NKp46 mAb 4 hours, vs carrier control) is given as “increased”; in assay [3] (unstimulated cells), “No significant increase”; in assay [4] (human CD8+ CTLs restimulated day 15-20 with plate-bound anti-CD3, 10 μM, 24 hours (FIG. 3B)) it was “increase”; in assay [4] (naive human CD8+ T cells, CD3/CD28/CD2 activator 24 hours, 5 or 10 μM (FIG. 3A)) it was “dose-dependent increase”.
